{"source": "patent US20100021940A1", "about": "“Method for Determining the Activity of a Protease in a Sample” (ASTRAZENECA AB, priority 2006, published 2010)", "assay_type_in_all_cases": "biochemical", "key": {"[1]": {"tested_on": "MMPs", "assay": "Cleavage of separated diastereomers by MMPs to liberate the reporter"}, "[2]": {"biological_target": "T1, MMP12 (Homo sapiens, UniProt P39900)", "T1 construct": "Recombinant human MMP12 catalytic domain may be expressed and purified; made in house", "T1 sequence (P39900 106-263 limits assumed)": "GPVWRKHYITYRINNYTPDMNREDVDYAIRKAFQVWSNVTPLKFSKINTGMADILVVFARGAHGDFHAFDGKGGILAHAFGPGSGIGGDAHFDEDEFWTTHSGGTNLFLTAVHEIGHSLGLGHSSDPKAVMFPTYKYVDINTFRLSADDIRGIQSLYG", "assay": "Activity of purified MMP on substrate (reporter release)", "details": "30 μM substrate; MMP Conc. 0.27 nM; ABL010827", "excerpt": "In order to confirm the specificity of the substrates for various MMPs, standard enzymatic assays were adapted to monitor the release of reporter. The reporter was either analysed by a LC-MS method as described in Example 3a, or by a LC-UV method as described in Example 4.\nRecombinant human MMP12 catalytic domain may be expressed and purified as described by Parkar A. A. et al, (2000), Protein Expression and Purification, 20, 152. The purified enzyme can be used to monitor activity of substrates as follows: MMP12 (50 ng/ml final […]) in assay buffer (0.1M “Tris-HCl” (trade mark) buffer, pH 7.3 containing 0.1M NaCl, 20 mM CaCl2, 0.020 mM ZnCl and 0.05% (w/v) “Brij 35” (trade mark) detergent) in the presence or absence of inhibitors. Activity is determined by measuring the release of reporter 4-nitroaniline by the using the method in Example 3a."}, "[3]": {"biological_target": "T2, MMP8 (Homo sapiens, UniProt P22894)", "T2 construct": "purchased Calbiochem", "T2 sequence (P22894 101-467)": "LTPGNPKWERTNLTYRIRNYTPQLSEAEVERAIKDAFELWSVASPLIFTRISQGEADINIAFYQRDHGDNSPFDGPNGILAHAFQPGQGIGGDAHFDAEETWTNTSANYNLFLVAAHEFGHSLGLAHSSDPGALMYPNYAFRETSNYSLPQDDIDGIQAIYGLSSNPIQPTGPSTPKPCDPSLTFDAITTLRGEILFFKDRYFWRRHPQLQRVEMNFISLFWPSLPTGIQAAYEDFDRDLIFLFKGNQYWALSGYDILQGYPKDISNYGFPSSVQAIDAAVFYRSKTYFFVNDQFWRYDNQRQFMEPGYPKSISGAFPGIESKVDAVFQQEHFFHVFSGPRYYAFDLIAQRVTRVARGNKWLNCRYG", "assay": "Activity of purified MMP on substrate (reporter release)", "protocol": "In order to confirm the specificity of the substrates for various MMPs, standard enzymatic assays were adapted to monitor the release of reporter. The reporter was either analysed by a LC-MS method as described in Example 3a, or by a LC-UV method as described in Example 4. Purified pro-MMP8 is purchased from Calbiochem. The enzyme (at 10 μg/ml) is activated by p-amino-phenyl-mercuric acetate (APMA) at 1 mM for 2.5 h, 35° C. The activated enzyme can be used to monitor activity of substrates as follows: MMP8 (200 ng/ml final concentration) is incubated for 90 minutes at 35° C."}}}
{"smiles": "COC(=O)CCNC(=O)[C@H](CC(C)C)NC(=O)[C@@H](NC(=O)CNC(=O)[C@H](CC(C)C)NC(=O)[C@@H]1CCCN1C(C)=O)Nc1ccc([N+](=O)[O-])cc1", "note": "[Example 1.1, Methyl 1-acetyl-L-prolyl-L-leucylglycyl-α-R-(4-nitrophenylamino)-glycyl-L-leucyl-β-alaninate]", "values": [{"measurement": "Cleavage by MMPs to liberate the reporter", "setting": "[1]", "result": "rapidly cleaved by MMPs"}, {"measurement": "Activity", "setting": "[2]", "result": 7.7, "unit": "units/s"}, {"measurement": "Activity", "setting": "[3]; 30 μM substrate, MMP Conc. 2.7 nM, Calbiochem #444229", "result": 1.1, "unit": "units/s"}, {"measurement": "Activity of selected substrates with MMPs", "setting": "[3]; Table 1b, MMP8", "result": "120.4 units/s (molRXH/molEnz * s)"}]}
